Data: ChEMBL document CHEMBL1641529, “Novel 9a,11-bridged azalides: One-pot synthesis of N'-substituted 2-imino-1,3-oxazolidines condensed to an azalide aglycone” (2011)
Converted amounts (≈) assume the structure as drawn.

Tests used:
Saccharomyces cerevisiae = test: Toxicity in Saccharomyces cerevisiae after 24 hrs by microdilution method; format: functional, organism-based
Moraxella catarrhalis = test: Antimicrobial activity against Moraxella catarrhalis after 24 hrs by microdilution method; format: functional
Streptococcus pneumoniae = test: Antimicrobial activity against Streptococcus pneumoniae after 24 hrs by microdilution method; format: functional
Streptococcus pyogenes = test: Antimicrobial activity against Streptococcus pyogenes after 24 hrs by microdilution method; format: functional
Haemophilus influenzae = test: Antimicrobial activity against Haemophilus influenzae after 24 hrs by microdilution method; format: functional
Staphylococcus aureus = test: Antimicrobial activity against Staphylococcus aureus after 24 hrs by microdilution method; format: functional

| SMILES | Activity (Saccharomyces cerevisiae) | MIC (Moraxella catarrhalis) [mg/L] | MIC (Streptococcus pneumoniae) [mg/L] | MIC (Streptococcus pyogenes) [mg/L] | MIC (Haemophilus influenzae) [mg/L] | MIC (Staphylococcus aureus) [mg/L] |
| --- | --- | --- | --- | --- | --- | --- |
| CC[C@H]1OC(=O)[C@H](C)[C@@H](O)[C@H](C)[C@@H](O[C@@H]2O[C@H](C)C[C@H](N(C)C)[C@H]2O)[C@](C)(OC)C[C@@H](C)CN2/C(=N\Cc3ccccc3)O[C@H]([C@H]2C)[C@]1(C)O | Not toxic | > 64 | 32 (≈ 45.3 µM) | 16 (≈ 22.7 µM) | > 64 | > 64 |
| CC[C@H]1OC(=O)[C@H](C)[C@@H](O[C@@H]2C[C@@](C)(OC)[C@@H](O)[C@H](C)O2)[C@H](C)[C@@H](O[C@@H]2O[C@H](C)C[C@H](N(C)C)[C@H]2O)[C@](C)(O)C[C@@H](C)CN2/C(=N\C(C)C)O[C@H]([C@H]2C)[C@]1(C)O | Not toxic | 16 (≈ 19.9 µM) | 2 (≈ 2.49 µM) | 2 (≈ 2.49 µM) | > 64 | 16 (≈ 19.9 µM) |
| CC[C@H]1OC(=O)[C@H](C)[C@@H](O[C@@H]2C[C@@](C)(OC)[C@@H](O)[C@H](C)O2)[C@H](C)[C@@H](O[C@@H]2O[C@H](C)C[C@H](N(C)C)[C@H]2O)[C@](C)(OC)C[C@@H](C)CN2/C(=N\c3cccc4ccccc34)O[C@H]([C@H]2C)[C@]1(C)O | Not toxic | 8 (≈ 8.89 µM) | 0.5 (≈ 0.555 µM) | 1 (≈ 1.11 µM) | 32 (≈ 35.5 µM) | 16 (≈ 17.8 µM) |
| CC[C@H]1OC(=O)[C@H](C)[C@@]2(O)O[C@@](C)(C[C@@H](C)CN3/C(=N\Cc4ccccc4)O[C@H]([C@H]3C)[C@]1(C)O)[C@H](O[C@@H]1O[C@H](C)C[C@H](N(C)C)[C@H]1O)[C@H]2C | Not toxic | 32 (≈ 46.4 µM) | 32 (≈ 46.4 µM) | 32 (≈ 46.4 µM) | > 64 | > 64 |
| CC[C@H]1OC(=O)[C@H](C)[C@@]2(O)O[C@@](C)(C[C@@H](C)CN3/C(=N\C(C)C)O[C@H]([C@H]3C)[C@]1(C)O)[C@H](O[C@@H]1O[C@H](C)C[C@H](N(C)C)[C@H]1O)[C@H]2C | Not toxic | 32 (≈ 49.9 µM) | 16 (≈ 24.9 µM) | 32 (≈ 49.9 µM) | > 64 | > 64 |
| CC[C@H]1OC(=O)[C@H](C)[C@@H](O[C@@H]2C[C@@](C)(OC)[C@@H](O)[C@H](C)O2)[C@H](C)[C@@H](O[C@@H]2O[C@H](C)C[C@H](N(C)C)[C@H]2O)[C@](C)(O)C[C@@H](C)CN2/C(=N\c3cccc4ccccc34)O[C@H]([C@H]2C)[C@]1(C)O | Not toxic | 4 (≈ 4.51 µM) | < 0.125 | 0.25 (≈ 0.282 µM) | 8 (≈ 9.03 µM) | 8 (≈ 9.03 µM) |
| CC[C@H]1OC(=O)[C@H](C)[C@@H](O)[C@H](C)[C@@H](O[C@@H]2O[C@H](C)C[C@H](N(C)C)[C@H]2O)[C@](C)(O)C[C@@H](C)CN2/C(=N\Cc3ccccc3)O[C@H]([C@H]2C)[C@]1(C)O | Not toxic | 64 (≈ 92.5 µM) | 8 (≈ 11.6 µM) | 8 (≈ 11.6 µM) | > 64 | 64 (≈ 92.5 µM) |
| CC[C@H]1OC(=O)[C@H](C)[C@@H](O)[C@H](C)[C@@H](O[C@@H]2O[C@H](C)C[C@H](N(C)C)[C@H]2O)[C@](C)(O)C[C@@H](C)CN2/C(=N\c3ccc(-c4ccccc4)cc3OC)O[C@H]([C@H]2C)[C@]1(C)O | Not toxic | 32 (≈ 40.8 µM) | > 64 | > 64 | > 64 | > 64 |
| CC[C@H]1OC(=O)[C@H](C)[C@@H](O[C@@H]2C[C@@](C)(OC)[C@@H](O)[C@H](C)O2)[C@H](C)[C@@H](O[C@@H]2O[C@H](C)C[C@H](N(C)C)[C@H]2O)[C@](C)(OC)C[C@@H](C)CN2/C(=N\Cc3ccccc3)O[C@H]([C@H]2C)[C@]1(C)O | Not toxic | 2 (≈ 2.31 µM) | < 0.125 | < 0.125 | 16 (≈ 18.5 µM) | 2 (≈ 2.31 µM) |
| CC[C@H]1OC(=O)[C@H](C)[C@@H](O)[C@H](C)[C@@H](O[C@@H]2O[C@H](C)C[C@H](N(C)C)[C@H]2O)[C@](C)(OC)C[C@@H](C)CN2/C(=N\c3cccc4ccccc34)O[C@H]([C@H]2C)[C@]1(C)O | Not toxic | 16 (≈ 21.6 µM) | 64 (≈ 86.3 µM) | > 64 | > 64 | > 64 |
| CC[C@H]1OC(=O)[C@H](C)[C@@H](O[C@@H]2C[C@@](C)(OC)[C@@H](O)[C@H](C)O2)[C@H](C)[C@@H](O[C@@H]2O[C@H](C)C[C@H](N(C)C)[C@H]2O)[C@](C)(OC)C[C@@H](C)CN2/C(=N\C(C)C)O[C@H]([C@H]2C)[C@]1(C)O | Not toxic | 2 (≈ 2.45 µM) | 0.5 (≈ 0.613 µM) | 1 (≈ 1.23 µM) | 64 (≈ 78.4 µM) | 16 (≈ 19.6 µM) |
| CC[C@H]1OC(=O)[C@H](C)C(=O)[C@H](C)[C@@H](O[C@@H]2O[C@H](C)C[C@H](N(C)C)[C@H]2O)[C@](C)(OC)C[C@@H](C)CN2/C(=N\Cc3ccccc3)O[C@H]([C@H]2C)[C@]1(C)O | Not toxic | 8 (≈ 11.4 µM) | 2 (≈ 2.84 µM) | 8 (≈ 11.4 µM) | > 64 | > 64 |
| CC[C@H]1OC(=O)[C@H](C)[C@@H](O)[C@H](C)[C@@H](O[C@@H]2O[C@H](C)C[C@H](N(C)C)[C@H]2O)[C@](C)(O)C[C@@H](C)CN2/C(=N\c3cccc4ccccc34)O[C@H]([C@H]2C)[C@]1(C)O | Not toxic | 64 (≈ 87.9 µM) | > 64 | > 64 | > 64 | > 64 |
| CC[C@H]1OC(=O)[C@H](C)[C@@H](O[C@@H]2C[C@@](C)(OC)[C@@H](O)[C@H](C)O2)[C@H](C)[C@@H](O[C@@H]2O[C@H](C)C[C@H](N(C)C)[C@H]2O)[C@](C)(O)C[C@@H](C)CN2/C(=N\c3ccc(-c4ccccc4)cc3OC)O[C@H]([C@H]2C)[C@]1(C)O | Not toxic | 8 (≈ 8.49 µM) | < 0.125 | < 0.125 | 8 (≈ 8.49 µM) | 2 (≈ 2.12 µM) |
| CC[C@H]1OC(=O)[C@H](C)[C@@H](O)[C@H](C)[C@@H](O[C@@H]2O[C@H](C)C[C@H](N(C)C)[C@H]2O)[C@](C)(O)C[C@@H](C)CN2/C(=N\C(C)C)O[C@H]([C@H]2C)[C@]1(C)O | Not toxic | > 64 | 4 (≈ 6.21 µM) | 8 (≈ 12.4 µM) | > 64 | > 64 |
| CC[C@H]1OC(=O)[C@H](C)[C@@H](O[C@@H]2C[C@@](C)(OC)[C@@H](O)[C@H](C)O2)[C@H](C)[C@@H](O[C@@H]2O[C@H](C)C[C@H](N(C)C)[C@H]2O)[C@](C)(O)C[C@@H](C)CN2/C(=N\Cc3ccccc3)O[C@H]([C@H]2C)[C@]1(C)O | Not toxic | 2 (≈ 2.35 µM) | < 0.125 | < 0.125 | 16 (≈ 18.8 µM) | 2 (≈ 2.35 µM) |
| CC[C@H]1OC(=O)[C@H](C)C(=O)[C@H](C)[C@@H](O[C@@H]2O[C@H](C)C[C@H](N(C)C)[C@H]2O)[C@](C)(OC)C[C@@H](C)CN2/C(=N\C(C)C)O[C@H]([C@H]2C)[C@]1(C)O | Not toxic | 16 (≈ 24.4 µM) | 16 (≈ 24.4 µM) | > 64 | > 64 | > 64 |
